ChEMBL document CHEMBL1201862, “PubChem BioAssay data set” (2004)
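Five compound concentrations were applied to cells in 96-well plates for 48 hours; endpoints were derived by simple linear interpolation of the resulting dose-response curve. GI50 is the concentration that inhibits growth by half.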 Activity calls are given as the source filed them. No stated cut-off is given here; in the data, active = GI50 up to about 1.1 µM and inactive = higher.

Experiments:
Assay in all cases: inhibition of tumour cell growth, NCI panel, 48 h
SN12C = test system: SN12C
SK-MEL-28 = test system: SK-MEL-28
HCT-15 = test system: HCT-15
LOX IMVI = test system: LOX IMVI
SF-539 = test system: SF-539
COLO 205 = test system: COLO 205
UACC-257 = test system: UACC-257
SR = test system: SR
NCI-H460 = test system: NCI-H460
K562 = test system: K562
MOLT-4 = test system: MOLT-4
MCF7 = test system: MCF7
KM12 = test system: KM12
HOP-62 = test system: HOP-62
RXF 393 = test system: RXF 393
M14 = test system: M14
SK-OV-3 = test system: SK-OV-3
MDA-MB-435 = test system: MDA-MB-435
IGROV-1 = test system: IGROV-1
PC-3 = test system: PC-3
DU-145 = test system: DU-145
Malme-3M = test system: Malme-3M
HOP-92 = test system: HOP-92
UO-31 = test system: UO-31
UACC-62 = test system: UACC-62
MDA-MB-231 = test system: MDA-MB-231
SW-620 = test system: SW-620
ACHN = test system: ACHN
CCRF-CEM = test system: CCRF-CEM
HL-60 = test system: HL-60
A549 = test system: A549
SK-MEL-5 = test system: SK-MEL-5
EKVX = test system: EKVX
A498 = test system: A498
TK-10 = test system: TK-10
NCI-H226 = test system: NCI-H226
NCI/ADR-RES = test system: NCI/ADR-RES
RPMI-8226 = test system: RPMI-8226
OVCAR-4 = test system: OVCAR-4
SNB-19 = test system: SNB-19
Hs-578T = test system: Hs-578T
786-0 = test system: 786-0
MDA-N = test system: MDA-N
NCI-H23 = test system: NCI-H23
HCT-116 = test system: HCT-116
BT-549 = test system: BT-549
T47D = test system: T47D
SF-268 = test system: SF-268
U-251 = test system: U-251
HT-29 = test system: HT-29
SK-MEL-2 = test system: SK-MEL-2
OVCAR-5 = test system: OVCAR-5
OVCAR-3 = test system: OVCAR-3
OVCAR-8 = test system: OVCAR-8
HCC 2998 = test system: HCC 2998
NCI-H522 = test system: NCI-H522
CAKI-1 = test system: CAKI-1
SF-295 = test system: SF-295

For `Cn1cc[n+](-c2cc(=O)n(C)c(=O)[n-]2)c1`, the GI50 (SN12C) was > 100 µM (inactive), the GI50 (SK-MEL-28) was > 100 µM (inactive) and the GI50 (HCT-15) was > 100 µM. The GI50 (LOX IMVI) was > 100 µM (inactive), the GI50 (SF-539) was > 100 µM (inactive) and the GI50 (COLO 205) was 96.4 µM (inactive). For the same molecule, the GI50 (UACC-257) was > 100 µM (inactive), the GI50 (SR) was 27.9 µM (inactive) and the GI50 (NCI-H460) was > 100 µM (inactive). The GI50 (K562) was 81.8 µM (inactive), the GI50 (MOLT-4) was 77.8 µM (inactive) and the GI50 (MCF7) was 93.5 µM (inactive). The GI50 (KM12) was > 100 µM (inactive), the GI50 (HOP-62) was > 100 µM (inactive) and the GI50 (RXF 393) was > 100 µM (inactive). The GI50 (M14) was > 100 µM (inactive), the GI50 (SK-OV-3) was > 100 µM (inactive) and the GI50 (MDA-MB-435) was > 100 µM (inactive). The GI50 (IGROV-1) was > 100 µM (inactive), the GI50 (PC-3) was > 100 µM (inactive) and the GI50 (DU-145) was > 100 µM (inactive). For the same molecule, the GI50 (Malme-3M) was > 100 µM (inactive), the GI50 (HOP-92) was > 100 µM (inactive) and the GI50 (UO-31) was 44.3 µM (inactive). The GI50 (UACC-62) was > 100 µM (inactive), the GI50 (MDA-MB-231) was > 100 µM (inactive) and the GI50 (SW-620) was > 100 µM (inactive). The GI50 (ACHN) was > 100 µM (inactive), the GI50 (CCRF-CEM) was > 100 µM (inactive) and the GI50 (HL-60) was > 100 µM (inactive). The GI50 (A549) was > 100 µM (inactive), the GI50 (SK-MEL-5) was 97.7 µM (inactive) and the GI50 (EKVX) was 49.9 µM (inactive). For the same molecule, the GI50 (A498) was > 100 µM (inactive), the GI50 (TK-10) was 31.8 µM (inactive) and the GI50 (NCI-H226) was 91.8 µM (inactive). For the same molecule, the GI50 (NCI/ADR-RES) was > 100 µM (inactive), the GI50 (RPMI-8226) was 96.8 µM (inactive) and the GI50 (OVCAR-4) was 94.4 µM (inactive). The GI50 (SNB-19) was > 100 µM (inactive), the GI50 (Hs-578T) was 42.8 µM (inactive) and the GI50 (786-0) was > 100 µM (inactive). The GI50 (MDA-N) was > 100 µM (inactive), the GI50 (NCI-H23) was > 100 µM (inactive) and the GI50 (HCT-116) was > 100 µM (inactive). The GI50 (BT-549) was > 100 µM (inactive), the GI50 (T47D) was 92.3 µM (inactive) and the GI50 (SF-268) was > 100 µM (inactive). For the same molecule, the GI50 (U-251) was > 100 µM (inactive), the GI50 (HT-29) was > 100 µM (inactive) and the GI50 (SK-MEL-2) was > 100 µM (inactive). The GI50 (OVCAR-5) was > 100 µM (inactive) and the GI50 (OVCAR-3) was 80 µM (inactive).
For `CC(C)(C)OC(=O)NC12C3C4C1C1C2C3C41NC(=O)OC(C)(C)C` (configuration not stated), the GI50 (SN12C) was 88.5 µM (inactive), the GI50 (SK-MEL-28) was 51.4 µM (inactive) and the GI50 (OVCAR-8) was 30.5 µM (inactive). For the same molecule, the GI50 (HCT-15) was 73.3 µM, the GI50 (LOX IMVI) was 36.1 µM (inactive) and the GI50 (SF-539) was 31 µM (inactive). The GI50 (COLO 205) was > 100 µM (inactive), the GI50 (UACC-257) was 39.4 µM (inactive) and the GI50 (SR) was 47.5 µM (inactive). For the same molecule, the GI50 (HCC 2998) was > 100 µM (inactive), the GI50 (NCI-H460) was 35.6 µM (inactive) and the GI50 (K562) was 50.4 µM (inactive). The GI50 (MOLT-4) was 15.2 µM (inactive), the GI50 (MCF7) was 29.6 µM (inactive) and the GI50 (KM12) was 15.8 µM (inactive). The GI50 (HOP-62) was 50.6 µM (inactive), the GI50 (RXF 393) was 28.5 µM (inactive) and the GI50 (M14) was 50 µM (inactive). For the same molecule, the GI50 (NCI-H522) was 63.2 µM (inactive), the GI50 (MDA-MB-435) was 51.9 µM (inactive) and the GI50 (IGROV-1) was > 100 µM (inactive). For the same molecule, the GI50 (CAKI-1) was > 100 µM (inactive), the GI50 (PC-3) was 61.2 µM (inactive) and the GI50 (DU-145) was 68.4 µM (inactive). For the same molecule, the GI50 (HOP-92) was 68.1 µM (inactive), the GI50 (UO-31) was 39.4 µM (inactive) and the GI50 (UACC-62) was 54.3 µM (inactive). The GI50 (MDA-MB-231) was 26 µM (inactive), the GI50 (SW-620) was 62.8 µM (inactive) and the GI50 (ACHN) was > 100 µM (inactive). For the same molecule, the GI50 (CCRF-CEM) was 21.3 µM (inactive), the GI50 (HL-60) was 19.7 µM (inactive) and the GI50 (A549) was 71.9 µM (inactive). For the same molecule, the GI50 (SK-MEL-5) was 26.5 µM (inactive), the GI50 (EKVX) was 26.9 µM (inactive) and the GI50 (A498) was 50.5 µM (inactive). For the same molecule, the GI50 (TK-10) was > 100 µM (inactive), the GI50 (NCI/ADR-RES) was 22.5 µM (inactive) and the GI50 (OVCAR-4) was 35.4 µM (inactive). For the same molecule, the GI50 (SNB-19) was > 100 µM (inactive), the GI50 (SF-295) was 48.1 µM (inactive) and the GI50 (Hs-578T) was 23.7 µM (inactive). The GI50 (786-0) was 43.1 µM (inactive), the GI50 (MDA-N) was 61.2 µM (inactive) and the GI50 (NCI-H23) was 57.4 µM (inactive). The GI50 (HCT-116) was 47.3 µM (inactive), the GI50 (BT-549) was 42.6 µM (inactive) and the GI50 (T47D) was 27.3 µM (inactive). The GI50 (SF-268) was 35.8 µM (inactive), the GI50 (U-251) was 37.8 µM (inactive) and the GI50 (HT-29) was 26.9 µM (inactive). The GI50 (SK-MEL-2) was > 100 µM (inactive), the GI50 (OVCAR-5) was > 100 µM (inactive) and the GI50 (OVCAR-3) was 79.3 µM (inactive).
